Common to all, as to type: in vivo
Settings in all cases: 3 L/ha of glufosinate ammonium 18.5%

One experiment deals with Field horsetail. Briefly: Weed control efficacy of glufosinate applied with the applicator: field horsetail. From the text: (§1) The rate of application was 3 L/ha of glufosinate ammonium 18.5%.
A further experiment concerns Crabgrass. Nature of the experiment: Weed control efficacy of glufosinate applied with the applicator: crabgrass.
Excerpt: as §1

A further experiment relates to Broadleaf dock. Nature of the experiment: Weed control efficacy of glufosinate applied with the applicator: broadleaf dock.
Excerpt: as §1

The next experiment concerns Water foxtail. Briefly: Weed control efficacy of glufosinate applied with the applicator: water foxtail.
Excerpt: as §1

The next experiment has as its system Barnyard grass. Briefly: Weed control efficacy of glufosinate applied with the applicator: barnyard grass.
Excerpt: as §1

The mark [1] stands for this setting: 0.36% applied at 15 ml/m^2, applicator of the disclosure.
The mark [2] stands for this setting: 0.56% applied at 10 ml/m^2, applicator of the disclosure.

The text below walks through data of US12667098B2, “Ready to use plant treatment agent applicator, container and product” (UPL Corporation Limited, priority 2022, dated 2026).

On to `CP(=O)(O)CCC(N)C(=O)O` (racemic) [glufosinate, glufosinate ammonium], for which the “Control %: Max weed efficacy” value in the experiment on Field horsetail (setting [1]) is listed as 76%; with Field horsetail (setting [2]), 73%; in the experiment with Crabgrass (setting [1]), 82%; in the experiment on Crabgrass (setting [2]) it was 81%; with Broadleaf dock (setting [1]), 92%; in the experiment on Broadleaf dock (setting [2]) it was 99%. The “Control %: Max weed efficacy” value in the experiment on Water foxtail (setting [1]) is 96%; in the experiment on Water foxtail (setting [2]), 92%; in the experiment on Barnyard grass (setting [1]) it was 59%; with Barnyard grass (setting [2]), 55%.
